For assay [1], the target named is T1, HRAS^G12V-GTP / scFv RASdm interaction (Homo sapiens, UniProt P01112, G12V).
T1 construct: made in house; host or cells: E. coli C41(DE3)
Description: AlphaScreen of interaction between GST-HRAS^G12V-GTPγS and His-tagged scFv RASdm. Type of assay: biochemical. The note with it: dose-response Alpha assay. The text has this: An AlphaScreen assay was established with GST-HRAS^G12V-GTP bound to GST-beads and HIS-tagged scFv RASdm bound to nickel-beads. The Alpha assay comprised interaction of anti-RAS and HRAS proteins and signal from the acceptor beads generated after excitation of the donor nickel-beads (depicted in Supplementary Fig. 3A). […] The interactions were optimized for protein concentrations linked to the donor and acceptor beads (Supplementary Fig. 3C,D). The interaction of HRAS^G12V-GTP with the dematured anti-RAS scFv was robust (Supplementary Fig. 3D) yielding Z factors of 0.74–0.85 being considered suitable for high throughput screen. […]
The AlphaScreen assay (Perkin Elmer) was performed in a 8 μl final volume in 1536-well white microtiter plates (Greiner). […] Exposure of the reaction to direct light was avoided and the emission of light from the acceptor beads was measured in the EnVision plate reader (Perkin Elmer) and analyzed using the EnVision manager software. […]
Panel A: AlphaLISA glutathione (GSH) acceptor beads were used to capture GST-HRAS loaded with GTPγS (Ag). […] Following incubation, nickel (Ni) chelate donor AlphaLISA beads were added and the chemiluminescence signal detected on an PE Envision plate reader. […]
Background: Alpha assays give light when donor and acceptor beads are brought close together.

Assay [2] has as its target T2, non-mutated anti-RAS scFv / HRAS^G12V interaction (Homo sapiens, UniProt P01112, G12V).
T2 construct: made in house; host or cells: E. coli C41(DE3)
Description: Alpha assay of non-mutated anti-RAS scFv with HRAS^G12V (identical protocol, unpublished data). It counts as biochemical. The text has this:
We have used the RAS protein as a target for this method as this was previously regarded as undruggable[9]–[11]. We provide further evidence of RAS druggability and that antibody binding sites can be employed to select small molecules for drug discovery as starting chemical matter for medicinal chemistry drug development campaigns. Compound A (Fig. 3A) is a heterocycle that would require crystal soaking to facilitate structure-based drug design to place this on a formal drug development programme. […] Further, the low Kd in SPR (Fig. 4), lack of inhibitory effect in Alpha controls (Fig. 3) argue against chemical reactivity as the reason for the Alpha assay inhibition. […] The low binding strength of these initial library hits, in turn resulting from the small size of the chemical library used, would preclude meaningful cell-assays at this stage.

For a further assay, the target named is HRAS-GPPNHP (Homo sapiens, UniProt P01112). Description: SPR of compound on biotinylated RAS isoform (streptavidin chip). Type of assay: binding.
HRAS-GPPNHP, sequence (P01112 1-166): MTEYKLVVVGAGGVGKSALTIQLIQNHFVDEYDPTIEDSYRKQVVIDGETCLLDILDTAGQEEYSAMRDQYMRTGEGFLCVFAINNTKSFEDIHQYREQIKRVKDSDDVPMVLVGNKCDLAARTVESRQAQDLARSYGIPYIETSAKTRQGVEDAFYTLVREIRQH
The target of the next assay is NRAS-GPPNHP (Homo sapiens, UniProt P01111). Described as above. It counts as binding.
NRAS-GPPNHP, sequence (P01111 1-166): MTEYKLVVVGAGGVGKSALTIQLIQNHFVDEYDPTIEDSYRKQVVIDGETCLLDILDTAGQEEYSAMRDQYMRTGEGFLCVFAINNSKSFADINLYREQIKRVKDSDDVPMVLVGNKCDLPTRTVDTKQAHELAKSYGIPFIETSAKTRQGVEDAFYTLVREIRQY
A further assay concerns dopamine D1 receptor. The note with it: cited from earlier work.
Another assay deals with KRAS^G12V-GPPNHP (Homo sapiens, UniProt P01116, G12V). Description: SPR of compound on biotinylated RAS isoform (streptavidin chip). Type of assay: binding.
Assay [3] relates to KRAS, HRAS and NRAS-GTP proteins. Description: SPR over the three RAS isoforms (average / overall).
Description: Accordingly, we used SPR to determine direct RAS-binding and because the anti-RAS intracellular antibody interacts with the three isoforms of activated RAS[3], we assessed if the compounds also show a pan-RAS binding.
The protein extracts were loaded with GPPNHP (a non-hydrolysable GTP analogue) as described[19] and biotinylated by incubation with BirA overnight at 4 °C. […] SPR experiments were performed using BIAcore T100 (GE Healthcare). […] The chip was prepared with 3 × 30 s injections of 1 M NaCl/50 mM NaOH at 10 µL/min flow rate, before biotinylated RAS proteins were injected at 25 µg/mL with 10 µL/min flow rate until 4000–5000 RU protein was captured.

SMILES strings stand for the structures. pIC50, pKd: −log10 of the molar value.

T1 sequence (P01112 whole entry G12V): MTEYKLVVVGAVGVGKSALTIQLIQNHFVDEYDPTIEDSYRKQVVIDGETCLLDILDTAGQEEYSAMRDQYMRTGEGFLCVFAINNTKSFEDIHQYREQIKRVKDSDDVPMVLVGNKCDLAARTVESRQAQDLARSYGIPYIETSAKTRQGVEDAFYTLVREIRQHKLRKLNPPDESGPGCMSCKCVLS
T2 sequence (P01112 whole entry G12V): as above

One may read the pIC50 as the negative decadic logarithm of the IC50, by convention in mol/L. A higher pIC50 goes with a low IC50. For the molecule `CCCn1c(=O)c2[nH]c(C3CCCC3)nc2n(CCCOC(=O)c2ccc(S(=O)(=O)F)cc2)c1=O` [Compound A, 8-Cyclopentyl-3-(3-((4-(fluorosulfonyl)benzoyl)oxy)propyl)-1-propylxanthine], the pIC50 in assay [1] is 5.70. Also, the “inhibition of interaction between non-mutated anti-RAS scFv and HRAS^G12V” value in assay [2] is “no inhibition”.
For orientation: pKd means the negative decadic logarithm of the Kd, by convention in mol/L. On to `CN1Cc2ccccc2C2c3cccc4[nH]cc(c34)CC21` (stereo not drawn) [compound B, 4,6,6a,7,8,12b-hexahydro-7-methylindolo(4,3-ab)-phenanthridine], for which the figures for the Rmax at HRAS-GPPNHP (Figure 4E), at NRAS-GPPNHP (Figure 4F) and at KRAS^G12V-GPPNHP (Figure 4D) were 3.5 RU, 6.8 RU and 6.7 RU, respectively. The pKd on HRAS-GPPNHP (HRAS) is 4.52; on NRAS-GPPNHP (NRAS) it was 4.46; at KRAS^G12V-GPPNHP (KRAS), 4.33; in assay [3] (read-out: average Kd, average over KRAS, HRAS and NRAS), 4.43. Besides, the “dopamine D1 receptor activity” value in the assay with dopamine D1 receptor is on record as “weak dopamine D1 receptor agonist”. The pIC50 in assay [1] was 5.22. Further, the “response in SPR analysis” value in assay [3] (KRAS, HRAS and NRAS proteins) is recorded as “low response”.

Source of the values: publication PMC7814043, “Pan RAS-binding compounds selected from a chemical library by inhibiting interaction between RAS and a reduced affinity intracellular antibody” (Scientific Reports, 2021).
